Source: the supplement of paper PMC13380429
± gives the standard deviation of the averaged measurements.

Columns and labels:
Conditions in all cases: 72 h
Vero E6 [1] = assay: relative viability EC50 (midpoint between 100% and the lowest measured viability); higher = less toxic
Caco-2 [2] = assay: as above
U2OS [3] = assay: as above
HepG2 [4] = assay: as above
Calu-3 [5] = assay: as above
Vero E6 [6] = assay: drug sensitivity score (DSS) for viability; higher = more toxic; extreme values may be limits of the assay
Caco-2 [7] = assay: as above
U2OS [8] = assay: as above
HepG2 [9] = assay: as above
Calu-3 [10] = assay: as above
Vero E6 [11] = assay: cell viability relative to DMSO; higher = less toxic
Caco-2 [12] = assay: as above
U2OS [13] = assay: as above
HepG2 [14] = assay: as above
Calu-3 [15] = assay: as above

Row | SMILES | relative viability EC50 (Vero E6 [1]) | relative viability EC50 (Caco-2 [2]) | relative viability EC50 (U2OS [3]) | relative viability EC50 (HepG2 [4]) | relative viability EC50 (Calu-3 [5]) | drug sensitivity score (Vero E6 [6]) | drug sensitivity score (Caco-2 [7]) | drug sensitivity score (U2OS [8]) | drug sensitivity score (HepG2 [9]) | drug sensitivity score (Calu-3 [10]) | cell viability (Vero E6 [11]; 1 nM) | cell viability (Vero E6 [11]; 10 nM) | cell viability (Vero E6 [11]; 100 nM) | cell viability (Vero E6 [11]; 1000 nM) | cell viability (Vero E6 [11]; 10000 nM) | cell viability (Caco-2 [12]; 1 nM) | cell viability (Caco-2 [12]; 10 nM) | cell viability (Caco-2 [12]; 100 nM) | cell viability (Caco-2 [12]; 1000 nM) | cell viability (Caco-2 [12]; 10000 nM) | cell viability (U2OS [13]; 1 nM) | cell viability (U2OS [13]; 10 nM) | cell viability (U2OS [13]; 100 nM) | cell viability (U2OS [13]; 1000 nM) | cell viability (U2OS [13]; 10000 nM) | cell viability (HepG2 [14]; 1 nM) | cell viability (HepG2 [14]; 10 nM) | cell viability (HepG2 [14]; 100 nM) | cell viability (HepG2 [14]; 1000 nM) | cell viability (HepG2 [14]; 10000 nM) | cell viability (Calu-3 [15]; 1 nM) | cell viability (Calu-3 [15]; 10 nM) | cell viability (Calu-3 [15]; 100 nM) | cell viability (Calu-3 [15]; 1000 nM) | cell viability (Calu-3 [15]; 10000 nM)
1 | CC(C)[C@H]1[C@@H]2CC[C@@H](C2)[C@@H]1N | > 10 µM | > 10 µM | > 10 µM | > 10 µM | > 10 µM | 0 | 0.3 | 0 | 0 | 0 | 89.6% | 99.3% | 88.5% | 95.3% | 108% | 96.8% | 98.9% | 106% | 100% | 83.9% | 103% | 102% | 98% | 93.6% | 92.1% | 89.5% | 95% | 93.6% | 97.4% | 90.1% | 102% | 99.7% | 98.6% | 96% | 104%
2 | CCC(=O)c1cc(-c2ccc(Cl)cc2)n(-c2ccc(S(N)(=O)=O)cc2)c1C | > 10 µM | > 10 µM | > 10 µM | > 10 µM | > 10 µM | 0 | 0 | 0 | 0 | 0 | 103% | 104% | 98.4% | 101% | 91.2% | 101% | 91.1% | 107% | 96.5% | 89.7% | 103% | 99.6% | 99.3% | 96.4% | 102% | 105% | 102% | 102% | 122% | 91.5% | 96.6% | 97.4% | 103% | 102% | 103%
3 | CCCC[P+](CCCC)(CCCC)Cc1ccc(NC(=O)[C@H](Cc2ccc3ccccc3c2)N/C(=N/C2CCCCC2)NC2CCCCC2)cc1 | > 10 µM | > 10 µM | > 10 µM | > 10 µM | > 10 µM | 0 | 0.4 | 0 | 0.1 | 0 | 102% | 97.7% | 107% | 100% | 90.7% | 90.8% | 100% | 87.9% | 102% | 81.4% | 98.7% | 99.7% | 96.5% | 96.6% | 88.9% | 95.5% | 107% | 117% | 97.3% | 88.5% | 94.7% | 91.2% | 97.5% | 97.4% | 86.2%
4 | CCCCc1ccc(NS(=O)(=O)c2ccc(F)cc2)cc1 | > 10 µM | > 10 µM | > 10 µM | > 10 µM | > 10 µM | 0 | 0 | 0 | 1.6 | 0 | 101% | 101% | 99.9% | 99.1% | 96.2% | 94.9% | 87.2% | 98.6% | 93.3% | 88.5% | 97.4% | 96.2% | 99% | 101% | 100% | 101% | 114% | 86.6% | 99.4% | 86.5% | 93.2% | 87.6% | 100% | 98.5% | 102%
5 | CCOC(=O)[C@@H](C)Oc1cccc2c(=O)n(CC(=O)Nc3ccc4c(c3)OCCO4)ccc12 | > 10 µM | > 10 µM | > 10 µM | > 10 µM | > 10 µM | 0 | 0.3 | 0 | 0 | 0 | 101% | 99.4% | 99% | 98.5% | 99.1% | 90.5% | 113% | 95.5% | 101% | 83.5% | 98.3% | 101% | 95.8% | 105% | 88.9% | 106% | 92.7% | 98.6% | 91.4% | 102% | 92.5% | 88.6% | 80.8% | 95.5% | 89.8%
6 | CNc1ncc2cc(-c3cc(NC(=O)NCCC(C)(C)C)c(F)cc3C)c(C)nc2n1 | 0.915 µM | 1.09 µM | 1.67 µM | 0.189 µM | 1.34 µM | 9.1 | 7.2 | 7.4 | 18.9 | 7.7 | 96.6% | 103% | 95.1% | 59.2% | 22.3% | 101% | 97.9% | 99.1% | 71.1% | 35.7% | 104% | 104% | 97.9% | 82.3% | 17.6% | 111% | 98.9% | 78.2% | 12.5% | 8.3% | 90.9% | 106% | 106% | 75.5% | 24.6%
7 | COc1cc2c(Nc3ccc(NC(=O)c4ccccc4)cc3)ncnc2cc1OCCCN1CCOCC1 | > 10 µM | > 10 µM | > 10 µM | > 10 µM | > 10 µM | 0 | 0 | 0 | 0 | 0 | 99.7% | 101% | 101% | 97.3% | 108% | 99.6% | 96.8% | 106% | 102% | 108% | 105% | 98.3% | 101% | 103% | 102% | 102% | 107% | 96.4% | 108% | 109% | 95.2% | 95.5% | 96.9% | 79.4% | 99.6%
8 | C[C@@H](Oc1ccc(Cl)cc1)c1ccnc2ncnn12 | > 10 µM | > 10 µM | > 10 µM | > 10 µM | > 10 µM | 0 | 0 | 0 | 0 | 0 | 96.2% | 97.7% | 90.1% | 96.2% | 106% | 97.2% | 91.7% | 94% | 109% | 93% | 95.8% | 94.3% | 99.3% | 99.9% | 99.2% | 95% | 102% | 92.7% | 96.3% | 107% | 118% | 97.6% | 100% | 89.7% | 95%
9 | C[C@@H]1CCN(C(=O)CC#N)C[C@@H]1N(C)c1ncnc2[nH]ccc12 | > 10 µM | > 10 µM | > 10 µM | > 10 µM | > 10 µM | 0 | 0 | 0 | 0 | 0 | 98.6% | 94.8% | 97% | 98.3% | 96.1% | 102% | 103% | 94.4% | 96.9% | 104% | 101% | 103% | 101% | 103% | 96.9% | 111% | 94.4% | 105% | 97.7% | 108% | 96.3% | 97.5% | 106% | 112% | 110%
10 | Cc1cccc(-c2[nH]c(C(C)(C)C)nc2-c2ccc3nccnc3c2)n1 | > 10 µM | 2.14 µM | > 10 µM | 1.64 µM | > 10 µM | 0.7 | 5.4 | 1.3 | 7.9 | 0 | 99.3% | 99.4% | 104% | 98.1% | 81.6% | 104% | 98.1% | 104% | 91.1% | 29.8% | 96.8% | 101% | 95% | 89.2% | 79% | 101% | 95.2% | 103% | 80.5% | 12.9% | 106% | 104% | 109% | 102% | 87.3%
11 | Oc1ccc(-c2nc(-c3ccc(F)cc3)c(-c3ccncc3)[nH]2)cc1 | > 10 µM | > 10 µM | > 10 µM | > 10 µM | > 10 µM | 0 | 0 | 0 | 0.9 | 0 | 97.7% | 100% | 91.1% | 93.4% | 111% | 88.1% | 104% | 100% | 95% | 91.1% | 96.6% | 101% | 94.8% | 98.1% | 89.8% | 101% | 103% | 102% | 94% | 83.5% | 87.3% | 106% | 104% | 118% | 91.2%
12 | N[C@@H](C(=O)O)c1ccc(C(=O)O)c(O)c1 (racemic) [4-carboxy-3-hydroxyphenylglycine-(RS)] | > 10 µM | > 10 µM | > 10 µM | > 10 µM | > 10 µM | 0 | 0 | 0 | 0 | 0 | 101.5 ± 0.78% | 98.35 ± 0.49% | 97.35 ± 0.92% | 102 ± 5.4% | 105 ± 12% | 98.6% | 97.4% | 92.6% | 110% | 103% | 97.1 ± 3% | 99.4 ± 2.1% | 97.8 ± 3.1% | 98.7 ± 4.6% | 105 ± 1.8% | 99.7 ± 6.4% | 113 ± 12% | 104 ± 6.9% | 107 ± 4% | 98.7 ± 16% | 94.7 ± 5.6% | 91.5 ± 6.3% | 95.95 ± 0.35% | 94.5 ± 1.1% | 99.5 ± 2%
13 | C[C@@]1(O)[C@H](O)[C@@H](CO)O[C@H]1n1cnc2c(NC3CCCC3)nc(Cl)nc21 [2'-MeCCPA] | > 10 µM | > 10 µM | > 10 µM | > 10 µM | > 10 µM | 0 | 0 | 0 | 0 | 0 | 105% | 98.7% | 100% | 98.9% | 102% | 95.9% | 100% | 102% | 105% | 103% | 96.9% | 100% | 96.8% | 99.6% | 100% | 95.6% | 95.5% | 101% | 97.7% | 96.8% | 93.9% | 98% | 96.5% | 100% | 91.4%
14 | c1ccc2sc(N3CCN(Cc4ccc5c(c4)OCO5)CC3)nc2c1 [2-[1-(4-piperonyl)piperazinyl]benzothiazole] | > 10 µM | > 10 µM | > 10 µM | > 10 µM | > 10 µM | 0 | 0 | 0 | 0 | 0 | 92% | 94.8% | 91.7% | 95.8% | 100% | 103% | 92.2% | 98.9% | 90.3% | 100% | 97.2% | 98% | 106% | 96.1% | 104% | 98.4% | 108% | 100% | 96% | 103% | 102% | 92.8% | 103% | 98.6% | 90.5%
